Values joined by “and” are separate entries in the source; they are usually repeats but may differ in a detail not shown here. Equal values may be shown once.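 Five concentrations, 48 hours, 96-well plates. Abbreviation: GI50, concentration required for 50% inhibition of growth. TGI: concentration producing complete growth inhibition.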

Experimental findings from PubChem BioAssay (NCI) are described below.

Among the test systems are A549 NSCLC; ACHN renal; COLO 205 colon; DU-145 prostate; M14 melanoma; OVCAR-8 ovarian; SK-OV-3 ovarian; UACC-257 melanoma; BT-549 breast; MDA-MB-231 breast.
Common to all, as to experiment: growth of human tumour cells (NCI), 48 h

For `CCOC(=O)CCC(NC(=O)c1ccc(N=Cc2nc3cc(C(F)(F)F)ccc3nc2-c2ccccc2)cc1)C(=O)OCC` (configuration not stated), the GI50 was > 100 µM in the test on A549 NSCLC; 46.3 µM in the test on ACHN renal; > 100 µM in the test with COLO 205 colon; > 100 µM with M14 melanoma; > 100 µM in the test on OVCAR-8 ovarian; 14.1 µM in the test with SK-OV-3 ovarian. Besides, the GI50 in the test on UACC-257 melanoma was > 100 µM. Also, the TGI with A549 NSCLC was 50 µM and > 100 µM; in the test on ACHN renal it was 50 µM and > 100 µM; in the test on COLO 205 colon it was 50 µM and > 100 µM; in the test with DU-145 prostate it was 50 µM; in the test with M14 melanoma, 50 µM and > 100 µM; with OVCAR-8 ovarian, 27.4 µM and > 100 µM. The TGI is 23.2 µM and 38.2 µM in the test with SK-OV-3 ovarian; > 100 µM in the test with UACC-257 melanoma.

On to `C[C@@H](c1ccc2nccn2c1)n1nnc2ncc(-c3cnn(C)c3)nc21`, for which the GI50 in the test with A549 NSCLC was > 100 µM; with ACHN renal, > 100 µM; in the test with BT-549 breast it was 91.7 µM; in the test with COLO 205 colon, > 100 µM; with M14 melanoma, > 100 µM; in the test with MDA-MB-231 breast, > 100 µM. The GI50 in the test with OVCAR-8 ovarian, in the test with SK-OV-3 ovarian and with UACC-257 melanoma was > 100 µM in each case. In addition, the TGI in the test on A549 NSCLC, in the test with ACHN renal, with BT-549 breast, with COLO 205 colon, in the test on M14 melanoma and with MDA-MB-231 breast was > 100 µM each time. Besides, the TGI in the test with OVCAR-8 ovarian, in the test on SK-OV-3 ovarian and in the test on UACC-257 melanoma was > 100 µM throughout.

`COc1cc2c3c(n(C)c(=O)c2cc1OC)-c1cc2c(cc1/C3=C\CCCCN)OCO2`: the GI50 in the test with A549 NSCLC is 6.26 µM; in the test with ACHN renal, 9.66 µM; in the test on COLO 205 colon it was 27.5 µM; in the test with DU-145 prostate, 10.5 µM; in the test on M14 melanoma it was 5.55 µM; with MDA-MB-231 breast it was 2.94 µM. The GI50 was 3.77 µM in the test on OVCAR-8 ovarian, 17.1 µM in the test on SK-OV-3 ovarian and 12.5 µM in the test on UACC-257 melanoma. The TGI in the test with A549 NSCLC is 27.4 µM; in the test on ACHN renal, 26.3 µM; with COLO 205 colon it was > 100 µM; in the test on DU-145 prostate, 31.4 µM; in the test with M14 melanoma it was 19.6 µM; in the test with MDA-MB-231 breast, 11.4 µM. For the same compound, the figures for the TGI in the test with OVCAR-8 ovarian, with SK-OV-3 ovarian and in the test on UACC-257 melanoma were 14.2 µM, 46.7 µM and 35.7 µM, respectively.

`CC12OC(C(=O)C13CC3)C1C(=O)c3ccccc3C(=O)C12` (configuration not stated): the GI50 in the test on A549 NSCLC is 37.2 µM; in the test on BT-549 breast it was 36.2 µM; in the test on COLO 205 colon, 89 µM; with M14 melanoma it was 41 µM; in the test with MDA-MB-231 breast it was 46.8 µM; in the test on OVCAR-8 ovarian, 20.3 µM. Moreover, the results for the GI50 in the test on SK-OV-3 ovarian and in the test on UACC-257 melanoma were 25.3 µM and 27.7 µM, respectively. Further, the TGI in the test with A549 NSCLC was > 100 µM; in the test with BT-549 breast, 76.9 µM; in the test on COLO 205 colon it was > 100 µM; in the test with M14 melanoma, > 100 µM; in the test on MDA-MB-231 breast, > 100 µM; in the test with OVCAR-8 ovarian it was 48.4 µM. Also, the TGI with SK-OV-3 ovarian came out at 74.8 µM; in the test on UACC-257 melanoma, 68.8 µM.

For the compound `CCCCCCC(=O)C/C(CCC(=O)N(Cc1ccccc1)Cc1ccccc1)=N\Nc1ccc([N+](=O)[O-])cc1[N+](=O)[O-]`, the TGI in the test with A549 NSCLC, in the test on ACHN renal, in the test with COLO 205 colon, in the test on M14 melanoma, in the test with OVCAR-8 ovarian and in the test with SK-OV-3 ovarian was > 100 µM throughout. The TGI with UACC-257 melanoma was > 100 µM.

With `CNC(=O)OCc1nc(SC(C)C)n(C)c1COC(=O)NC`, the TGI in the test on A549 NSCLC, in the test on ACHN renal, in the test with COLO 205 colon, in the test with M14 melanoma, in the test on OVCAR-8 ovarian and in the test on SK-OV-3 ovarian was > 100 µM each time. Further, in the test on UACC-257 melanoma, the TGI is > 100 µM.

In the case of `S=c1[nH]nc(COc2ccc(Cl)cc2)o1`, the TGI in the test with A549 NSCLC, with ACHN renal, in the test with COLO 205 colon, in the test with M14 melanoma, with OVCAR-8 ovarian and in the test on SK-OV-3 ovarian was > 100 µM throughout. In the test on UACC-257 melanoma, the TGI is > 100 µM.

Consider `CC(Cl)(/C=C/Cl)C(Cl)/C=C/C(Cl)(CCl)CBr` (configuration not stated), for which the TGI with A549 NSCLC worked out at 47.3 µM; with ACHN renal it was 18.1 µM; with COLO 205 colon, 4.94 µM; with M14 melanoma, 7.89 µM; with OVCAR-8 ovarian, 13.2 µM; in the test on SK-OV-3 ovarian it was 30.9 µM. The same compound showed a TGI in the test on UACC-257 melanoma of 7.02 µM.

On to `N#Cc1ccccc1NC(=O)C(=O)C(C(=O)c1ccccc1-c1ccccc1)C1OC(=O)c2ccccc21` (configuration not stated), for which the TGI in the test on A549 NSCLC was > 100 µM; with ACHN renal it was 89.4 µM; in the test on COLO 205 colon it was 43.2 µM; in the test with M14 melanoma it was 30.6 µM; with OVCAR-8 ovarian, > 100 µM; with SK-OV-3 ovarian it was > 100 µM. In the test with UACC-257 melanoma, this compound yielded a TGI of 53.8 µM.
